A short description of the experiment: single fatty acids used alone (inventor's research). The note with it: any one fatty acid used alone, compared with the combination.
In the case of `CCCCCCCC/C=C\CCCCCCCC(=O)O` [oleic acid], the “curative effect when used alone” value is given as “relatively unobvious”.
To `CCCCCC/C=C\CCCCCCCC(=O)O` [palmitoleic acid] belongs “relatively unobvious”; to `CCCCCCCCCCCCCCCC(=O)O` [palmitic acid], “relatively unobvious”.
To `CCCCC/C=C\C/C=C\CCCCCCCC(=O)O` [linoleic acid] belongs “relatively unobvious”; to `CCCCCCCCCCCCCCCCCCCC(=O)O` [arachidic acid], “relatively unobvious”; to `CCCCCCCCCCCCCCCCCC(=O)O` [stearic acid], “relatively unobvious”.

The record behind these values is US20190117716A1, “FATTY ACID COMPOSITION AND PHARMACEUTICAL PREPARATION AND APPLICATION THEREOF” (priority 2011, published 2019).
